For data set [1], the system named is estrogen-primed immature rabbits. Particulars: cited from earlier work.
Data set [2] relates to cycling rats. The conditions noted are these: literature; cited from earlier work.
Data set [3] deals with endometrium of estrogen-primed ovariectomized or climacteric women. Particulars: cited from earlier work.
For data set [4] the following is noted: in vivo; cited from earlier work.
The target of data set [5] is T1, Cytosol Progesterone Receptor of the Estrogen-primed Immature Rabbit Uterus (Oryctolagus cuniculus, UniProt P06186).
T1 construct: cytosol progesterone receptor of the estrogen-primed immature rabbit uterus; tissue Dutchland Laboratories, Inc., Denver, Pa (animals); host or cells: uterus cytosol of estradiol-treated immature female New Zealand White rabbits
T1 sequence (P06186 1-930): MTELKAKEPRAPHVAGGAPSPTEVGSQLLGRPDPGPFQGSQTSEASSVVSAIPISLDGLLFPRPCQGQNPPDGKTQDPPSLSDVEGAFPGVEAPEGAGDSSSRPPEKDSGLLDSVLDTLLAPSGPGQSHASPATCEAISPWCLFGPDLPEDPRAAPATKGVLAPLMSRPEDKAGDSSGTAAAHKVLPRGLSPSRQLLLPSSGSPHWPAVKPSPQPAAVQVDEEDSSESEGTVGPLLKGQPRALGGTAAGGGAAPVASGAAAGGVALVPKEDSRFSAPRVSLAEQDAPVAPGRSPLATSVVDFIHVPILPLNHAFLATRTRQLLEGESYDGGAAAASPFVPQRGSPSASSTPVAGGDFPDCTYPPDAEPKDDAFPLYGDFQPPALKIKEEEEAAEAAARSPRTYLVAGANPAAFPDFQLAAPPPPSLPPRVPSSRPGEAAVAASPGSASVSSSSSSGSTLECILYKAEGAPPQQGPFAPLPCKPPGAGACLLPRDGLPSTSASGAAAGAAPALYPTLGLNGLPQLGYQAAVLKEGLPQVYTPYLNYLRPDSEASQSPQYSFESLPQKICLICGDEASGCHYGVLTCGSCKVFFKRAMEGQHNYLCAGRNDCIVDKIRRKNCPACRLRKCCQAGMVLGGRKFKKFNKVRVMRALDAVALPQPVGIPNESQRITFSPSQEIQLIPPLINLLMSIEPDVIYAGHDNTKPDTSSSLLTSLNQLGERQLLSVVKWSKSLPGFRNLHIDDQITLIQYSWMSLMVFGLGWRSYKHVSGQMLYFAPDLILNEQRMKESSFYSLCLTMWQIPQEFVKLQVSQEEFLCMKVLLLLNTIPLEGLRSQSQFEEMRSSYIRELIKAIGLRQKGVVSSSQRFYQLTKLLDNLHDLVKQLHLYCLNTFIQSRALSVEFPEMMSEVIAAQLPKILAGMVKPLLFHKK
Put plainly: Relative binding affinity for progesterone receptor (competition with 3H-progesterone). Particulars: 16-18 hour incubation, progesterone = 100. Details: species or system rabbit (New Zealand White).

The test system of data set [6] is curettage specimens of endometrial cancer patients. The conditions noted are these: i.m. twice weekly 3-7 weeks after polyestradiol phosphate 80 mg; all 12 patients; cited from earlier work.
Data set [7] concerns cycling rats. Put plainly: Blockade of ovulation in rats. The data set is classed as in vivo, rat (Charles River CD). The conditions noted are these: for No. Rats Ovulated (of rats treated) / No. of Oviductal Eggs in Rats that Ovulated (X ± S.D.): single sc. The source says: The treated rats were sacrificed on the morning of expected estrus and eggs, if present, were flushed from the oviducts and counted. | *This assay employs cycling Charles River CD rats. For methods refer to | Beattie, C. W. and A. Corbin, Endocrinology 97, 885, 1975. […] | diestrus. Rats were sacrificed 43 to 44 hr later on the morning of | expected estrus. Eggs, if present, were flushed from oviducts and counted | under a stereomicroscope.

The conditions of data set [8]: general knowledge; cited from earlier work.
In data set [9] the test system is androgen target organs of castrate immature male rats. Put plainly: Anti-androgenic activity in the castrate immature rat assay. The data set is classed as in vivo. As for the experimental part: The oral anti-androgenic activity of 6-methyl-6-dehydro-17α-ethynylprogesterone was evaluated in the castrate immature male rat assay [Lerner et al., Proc. Soc. […] The assay is briefly described in the footnotes to Table 11.
*This assay employs castrate immature rats. For methods refer to Lerner,
L. J., A. Bianchi and A. Borman, Proc. Soc.
**Groups of rats (7/group) were given daily injections of 0.3 ml sesame
oil (control) or compound (in 0.3 ml sesame oil) for 7 days. Some groups
also concurrently received progestational compounds by the sc or oral
route of administration in order to evaluate antiandrogenic activity. One
day after the final doses, the animals were sacrificed and the androgen
target organs indicated were weighed.
***Statistically significant (p < 0.05) lower organ weights versus the
testosterone, sc, (400 μg/rat/day) group as determined by Analysis of
Variance coupled with Duncan's Multiple Range Test.

Data set [10] concerns the target T1, Cytosol Progesterone Receptor of the Estrogen-primed Immature Rabbit Uterus. The conditions noted are these: relative to progesterone = 100; literature; cited from earlier work.
For data set [11], the system named is uterine endometrium of estrone-primed immature rabbits. Put plainly: Clauberg assay (progestational activity, McPhail). Type of data set: in vivo, rabbit (New Zealand White). Particulars: sc.
Where [12] appears, read: sc 25 μg/rat daily + testosterone sc 400.
Setting [13] is: sc 100 μg/rat daily + testosterone sc 400.
Where [14] appears, read: sc 400 μg/rat daily + testosterone sc 400.

Each structure is given as a SMILES string. Like-named read-outs stand apart in the source and are kept apart here.

In the case of `C#C[C@]1(O)CC[C@H]2[C@@H]3CCC4=CC(=O)CC[C@@H]4[C@H]3CC[C@@]21CC` (relative stereo) [(±)Norgestrel], the entries for the “Threshold or effective dose, Clauberg Assay” value in data set [1] (oral) and in data set [1] (s.c. (i.m.)) were 0.03-0.1 mg/animal and 0.03 mg/animal, respectively. Also, in the data set with cycling rats [2], the “effectiveness in suppressing ovulation relative to progesterone (Beattie and Corbin 1975), in words” value is listed as “five times as effective as progesterone”. Besides, in [3] (oral), the “Threshold or effective dose, Kaufman Assay” value is on record as 12 mg/cycle.
In the case of `CC(=O)O[C@]1(C(C)=O)CC[C@H]2[C@@H]3CCC4=CC(=O)CC[C@]4(C)[C@H]3CC[C@@]21C` [17α-Acetoxyprogesterone (Prodox ®), 17α-Acetoxyprogesterone, reference compound], the “thromboembolic episodes, in words” value in [4] is reported as “higher rate of thromboembolic episodes”. Further, the RBA amounted to 122% in data set [5] (Assay 5) and 114% in data set [5] (Assay 6).
As for `CCCCCC(=O)O[C@]1(C(C)=O)CC[C@H]2[C@@H]3CCC4=CC(=O)CC[C@]4(C)[C@H]3CC[C@@]21C` [17α-hydroxyprogesterone caproate], the “inhibition of nucleic acid synthesis, in words” value in data set [6] is “Significant inhibition of nucleic acid synthesis”.
For the molecule `CCCCCC(=O)O[C@]1(C(C)=O)CC[C@H]2[C@@H]3CCC4=CC(=O)CC[C@@H]4[C@H]3CC[C@@]21C` [19-nor-17α-hydroxyprogesterone caproate], the “inhibition of nucleic acid synthesis, in words” value in data set [6] is recorded as “Significant inhibition of nucleic acid synthesis”.
For `CC(=O)[C@H]1CC[C@H]2[C@@H]3CCC4=CC(=O)CC[C@]4(C)[C@H]3CC[C@]12C` [Progesterone], the “Threshold or effective dose, Clauberg Assay” value in data set [1] (oral) is on record as 10.0 mg/animal; in [1] (s.c. (i.m.)), 0.5 mg/animal. In addition, the “ovulation, in words” value is reported as “ovulation was blocked in most rats” with cycling rats [7] (500 μg progesterone, 100, 250 or 500 μg 17α-ethynylprogesterone) and “ovulated in a normal fashion” with cycling rats [7] (100 or 250 μg progesterone, 50 μg 17α-ethynylprogesterone). In addition, the entries for the “No. Rats Ovulated (of rats treated)” value with cycling rats [7] (100 μg/rat), in the data set with cycling rats [7] (250 μg/rat) and in the data set with cycling rats [7] (500 μg/rat) were 5/5, 4/5 and 1/4, respectively. Moreover, the results for the “No. of Oviductal Eggs in Rats that Ovulated (X ± S.D.)” value in the data set on cycling rats [7] (100 μg/rat), in the data set with cycling rats [7] (250 μg/rat) and in the data set with cycling rats [7] (500 μg/rat) were 7.8 ± 3.8, 7.0 ± 3.8 and 9.0, respectively. Further, the “oral progestational activity, in words” value in data set [8] is “only weakly active when taken orally”. The “Levator Ani weight (X ± S.D.)” value in data set [9] (setting [12]) is recorded as 54 ± 15 mg; in data set [9] (setting [13]), 58 ± 15 mg; in data set [9] (setting [14]), 59 ± 14 mg. The “Seminal Vesicles weight (X ± S.D.)” value in data set [9] (setting [12]) came to 157 ± 19 mg; in data set [9] (setting [14]) it was 162 ± 26 mg. Besides, the entries for the “Ventral Prostate weight (X ± S.D.)” value in data set [9] (setting [12]), in [9] (setting [13]) and in data set [9] (setting [14]) were 71 ± 28 mg, 80 ± 27 mg and 60 ± 26 mg, respectively. For the same molecule, the “anti-androgenic activity, in words” value in [9] (with testosterone sc 400 μg/rat/day, doses up to 400 μg/rat/day (progestagen oral; progesterone sc)) was “inactive”. In addition, in data set [10], the “RBA (Kontula et al. 1975)” value is 100. Moreover, the “Threshold or effective dose, Kaufman Assay” value in data set [3] (i.m.) is 200 mg/cycle. Further, the “Uterine Weight (X ± S.D.)” value came to 1.09 ± 0.09 g in data set [11] (50 μg/rabbit daily) and 1.64 ± 0.23 g in data set [11] (100 μg/rabbit daily).

(Values after patent US4512986A, “Progrestationally active steroids” (priority 1983, dated 1985).)
